# Measurements: patent US7781565B2 (priority 2006, dated 2010)
# Entries after “also recorded” stand apart in the source; their conditions may differ.
# System: NCI-60 cell lines
# Format: cell-based, human
substance,measurement,value
KMRIAGR,Cell Line the peptide is associated with (peptide recovered from phage library selection on this NCI-60 cell line),SN12C Renal
FSGLVVA,Cell Line (NCI-60 cell line the peptide is associated with),HT-29 Colon
GRLMPGG,Cell Line the peptide is associated with (peptide recovered from phage library selection on this NCI-60 cell line),ACHN Renal
LLNPARG,Cell Line the peptide is associated with (peptide recovered from phage library selection on this NCI-60 cell line),SN12C Renal
AEPRGRV,Cell Line with which the peptide (and its tripeptide motif) is associated,H460-Lung
IRVSAVV,Cell Line the peptide is associated with (peptide recovered from phage library selection on this NCI-60 cell line),HS 578 T Breast
VIGSRLS,Cell Line with which the peptide (and its tripeptide motif) is associated,EKVX-Lung
ASAGAVS,Cell Line (NCI-60 cell line the peptide and its motif are associated with),786-0 Renal
RGSVRVL,Cell Line with which the peptide (and its tripeptide motif) is associated,HL-60-Leukemia
RRVSCDL,Cell Line with which the peptide (and its tripeptide motif) is associated,Hop-62-Lung
AGIARGG,Cell Line with which the peptide (and its tripeptide motif) is associated,Hop-92-Lung
RMGLLRQ,Cell Line (NCI-60 cell line the peptide and its motif are associated with),M14 Melanoma
GGVSPVD,Cell Line with which the peptide (and its tripeptide motif) is associated,A549-Lung
LRVGXPG,Cell Line the peptide is associated with (peptide recovered from phage library selection on this NCI-60 cell line),NCI/ADR-RES Breast
GLVSTLI,Cell Line the peptide is associated with (peptide recovered from phage library selection on this NCI-60 cell line),BT-549 Breast
TRLGGLT,Cell Line (NCI-60 cell line the peptide is associated with),SF-295 CNS
HPSMGGR,Cell Line with which the peptide (and its tripeptide motif) is associated,Hop-62-Lung
GRVPGFE,Cell Line with which the peptide (and its tripeptide motif) is associated,H322-Lung
EQLSGVR,Cell Line with which the peptide (and its tripeptide motif) is associated,CCRF-CEM Leukemia
VMGAGVQ,Cell Line the peptide is associated with (peptide recovered from phage library selection on this NCI-60 cell line),ACHN Renal
GWVAVSC,Cell Line (NCI-60 cell line the peptide is associated with),LOX-IMVI Melanoma
PRGLGVG,Cell Line (NCI-60 cell line the peptide and its motif are associated with),SK-MEL-2 Melanoma
RSGRVSN,Cell Line (NCI-60 cell line the peptide and its motif are associated with),SK-OV-3-3 Ovarian
RFSGGLQ,Cell Line (NCI-60 cell line the peptide and its motif are associated with),SK-MEL-28 Melanoma
GSSTLQW,Cell Line the peptide is associated with (peptide recovered from phage library selection on this NCI-60 cell line),TK-10 Renal
GVLPVVT,Cell Line (NCI-60 cell line the peptide is associated with),HCT-15 Colon
RRFWAGL,Cell Line with which the peptide (and its tripeptide motif) is associated,H460-Lung
LACRGPS,Cell Line (NCI-60 cell line the peptide and its motif are associated with),PC3 Prostate
LGQCGRV,Cell Line with which the peptide (and its tripeptide motif) is associated,HL-60-Leukemia
RVGAGAF,Cell Line (NCI-60 cell line the peptide and its motif are associated with),SK-OV-3-3 Ovarian
PWGAGVR,Cell Line the peptide is associated with (peptide recovered from phage library selection on this NCI-60 cell line),BT-549 Breast
LGGLSER,Cell Line (NCI-60 cell line the peptide and its motif are associated with),SK-OV-3-3 Ovarian
YSGRLVM,Cell Line (NCI-60 cell line the peptide is associated with),SNB-75 CNS
FLLSRSA,Cell Line the peptide is associated with (peptide recovered from phage library selection on this NCI-60 cell line),NCI/ADR-RES Breast
IAMAGLR,Cell Line (NCI-60 cell line the peptide and its motif are associated with),SK-MEL-2 Melanoma
MERVAGR,Cell Line the peptide is associated with (peptide recovered from phage library selection on this NCI-60 cell line),SN12C Renal
GLRPHGA,Cell Line (NCI-60 cell line the peptide and its motif are associated with),UACC 257 Melanoma
RQTTGAV,Cell Line with which the peptide (and its tripeptide motif) is associated,K-562-Leukemia
AWRHAGG,Cell Line (NCI-60 cell line the peptide is associated with),SNB-19 CNS; also recorded: SF-539 CNS
RRSGAGG,Cell Line the peptide is associated with (peptide recovered from phage library selection on this NCI-60 cell line),UO31 Renal
EFTRRAS,Cell Line with which the peptide (and its tripeptide motif) is associated,A549-Lung
AVEGRGS,Cell Line (NCI-60 cell line the peptide is associated with),HCT-116 Colon
AALLRAV,Cell Line (NCI-60 cell line the peptide and its motif are associated with),OVCAR-4 Ovarian
CGEGLVV,Cell Line (NCI-60 cell line the peptide and its motif are associated with),DU-145 Prostate
CGARGAA,Cell Line with which the peptide (and its tripeptide motif) is associated,H322-Lung
VRPRAVL,Cell Line (NCI-60 cell line the peptide and its motif are associated with),UACC62 Melanoma
GNYGSVL,Cell Line with which the peptide (and its tripeptide motif) is associated,Hop-92-Lung
ERASQTA,Cell Line with which the peptide (and its tripeptide motif) is associated,K-562-Leukemia
RDLAGPS,Cell Line (NCI-60 cell line the peptide and its motif are associated with),OVCAR-4 Ovarian
SLRGVRV,Cell Line (NCI-60 cell line the peptide and its motif are associated with),UACC62 Melanoma
AGRRLRD,Cell Line the peptide is associated with (peptide recovered from phage library selection on this NCI-60 cell line),NCI/ADR-RES Breast
GDATLVS,Cell Line (NCI-60 cell line the peptide and its motif are associated with),786-0 Renal
AGRHLDA,Cell Line the peptide is associated with (peptide recovered from phage library selection on this NCI-60 cell line),HS 578 T Breast
MLGSASL,Cell Line the peptide is associated with (peptide recovered from phage library selection on this NCI-60 cell line),A498 Renal
PGKRGVQ,Cell Line with which the peptide (and its tripeptide motif) is associated,H460-Lung
RGSVASA,Cell Line (NCI-60 cell line the peptide is associated with),HT-29 Colon
AVRGGRP,Cell Line with which the peptide (and its tripeptide motif) is associated,Hop-92-Lung
RLSALTD,Cell Line (NCI-60 cell line the peptide is associated with),HT-29 Colon
TRGSGAG,Cell Line the peptide is associated with (peptide recovered from phage library selection on this NCI-60 cell line),HS 578 T Breast
YLLRALG,Cell Line (NCI-60 cell line the peptide is associated with),SF-268 CNS
GVGGRQS,Cell Line the peptide is associated with (peptide recovered from phage library selection on this NCI-60 cell line),TK-10 Renal
MQGRVIV,Cell Line (NCI-60 cell line the peptide and its motif are associated with),SK-OV-3-3 Ovarian
HTYGVRF,Cell Line the peptide is associated with (peptide recovered from phage library selection on this NCI-60 cell line),TK-10 Renal
RAGSRVQ,Cell Line (NCI-60 cell line the peptide is associated with),SF-295 CNS
RAAVIHT,Cell Line (NCI-60 cell line the peptide is associated with),MALME-3M Melanoma
GGLRVGG,Cell Line (NCI-60 cell line the peptide and its motif are associated with),PC3 Prostate
SQSGGRH,Cell Line with which the peptide (and its tripeptide motif) is associated,Molt-4-Leukemia
DELGSVQ,Cell Line the peptide is associated with (peptide recovered from phage library selection on this NCI-60 cell line),TK-10 Renal
RGSYVER,Cell Line the peptide is associated with (peptide recovered from phage library selection on this NCI-60 cell line),BT-549 Breast
RASYYGV,Cell Line the peptide is associated with (peptide recovered from phage library selection on this NCI-60 cell line),RXF393 Renal
PAFGPSR,Cell Line with which the peptide (and its tripeptide motif) is associated,RPMI-8226-Leukemia
GRVPTVV,Cell Line (NCI-60 cell line the peptide is associated with),KM-12C Colon
GGSAWWG,Cell Line (NCI-60 cell line the peptide and its motif are associated with),DU-145 Prostate
ILSDLVS,Cell Line the peptide is associated with (peptide recovered from phage library selection on this NCI-60 cell line),SN12C Renal
DAVRGPS,Cell Line (NCI-60 cell line the peptide and its motif are associated with),IGROV1 Ovarian
GGLVKRL,Cell Line (NCI-60 cell line the peptide and its motif are associated with),SK-MEL-2 Melanoma
DRFGSSA,Cell Line the peptide is associated with (peptide recovered from phage library selection on this NCI-60 cell line),ACHN Renal
AKLGSVY,Cell Line with which the peptide (and its tripeptide motif) is associated,H226-Lung
EGGRTHW,Cell Line (NCI-60 cell line the peptide is associated with),HT-29 Colon
QGSSNSV,Cell Line (NCI-60 cell line the peptide and its motif are associated with),IGROV1 Ovarian
RSSYAPP,Cell Line the peptide is associated with (peptide recovered from phage library selection on this NCI-60 cell line),ACHN Renal
AVYVGRL,Cell Line the peptide is associated with (peptide recovered from phage library selection on this NCI-60 cell line),NCI/ADR-RES Breast
RRLSYRE,Cell Line (NCI-60 cell line the peptide and its motif are associated with),OVCAR-8 Ovarian
GRAGGNG,Cell Line (NCI-60 cell line the peptide and its motif are associated with),M14 Melanoma
LIGGRNA,Cell Line (NCI-60 cell line the peptide is associated with),HCT-116 Colon
GSGYFIT,Cell Line (NCI-60 cell line the peptide and its motif are associated with),786-0 Renal
LVSVWSR,Cell Line (NCI-60 cell line the peptide is associated with),HCT-15 Colon
WWAAVPG,Cell Line the peptide is associated with (peptide recovered from phage library selection on this NCI-60 cell line),SN12C Renal
YRVSSGS,Cell Line (NCI-60 cell line the peptide is associated with),SNB-75 CNS
WRLAGLG,Cell Line the peptide is associated with (peptide recovered from phage library selection on this NCI-60 cell line),NCI/ADR-RES Breast
AGLSGGT,Cell Line with which the peptide (and its tripeptide motif) is associated,EKVX-Lung
RGGRSPS,Cell Line (NCI-60 cell line the peptide is associated with),HT-29 Colon
AAVWAAD,Cell Line with which the peptide (and its tripeptide motif) is associated,HL-60-Leukemia
KYYGLRR,Cell Line with which the peptide (and its tripeptide motif) is associated,RPMI-8226-Leukemia
